Experimental data as given in patent publication US9452177B2, “Vitamin D compounds and methods for reducing ocular hypertension (OHT)” (Wisconsin Alumni Research Foundation, priority 2008, dated 2016).

Key:
[1] = system: eyes of ocular normotensive cynomolgus monkeys; experiment: Intraocular pressure (IOP) by Goldmann applanation tonometry after 5 twice-daily unilateral topical treatments; assay type: in vivo, cynomolgus monkeys (Macaca fascicularis); conditions: for IOP less than at baseline prior to the 5th treatment: one eye, both treated and control eye; for IOP decrease prior to the fifth treatment on day 3: both eyes
Method: Ocular normotensive adult cynomolgus monkeys (Macaca fascicularis), of either sex, weighing 3-7 kg were anesthetized with i.m. ketamine HCl (3-25 mg/kg, supplemented with 1-10 mg/kg) for IOP and topical drop administration. All monkeys were free of any ocular abnormalities according to slit lamp biomicroscopy at the time measurements were taken. The monkeys were provided by the Primate Center at the University of Wisconsin-Madison. All experiments were done in accordance with the ARVO Statement on the Use of Animals in Ophthalmic and Vision Research.
The intraocular pressure (IOP) was determined with a “minified” Goldmann applanation tonometer [Kaufman, 1980] using HALF AND HALF™ creamer solution (Borden) as the tear film indicator [Croft, 1997] with the monkey lying prone in a head holder and the eyes positioned 4 to 8 cm above the heart. All monkeys were examined by slit-lamp before the first IOP measurement in each protocol. For each eye, two or three IOP measurements were averaged as a baseline.
(§1) Under ketamine anesthesia (KETAJECT™, Phoenix Pharmaceutical, St Joseph, Mo. (3-25 mg/kg i.m., supplemented with 1-10 mg/kg i.m. as needed) baseline IOP was determined, usually between 7:30 and 9 am (2 readings, 5 minutes apart; if IOP baseline measurements were not within 2-3 mm Hg of each other, a 3rd reading was taken 5 min later). Baseline IOP was at least 15 mmHg if possible. A baseline blood sample was taken from the femoral artery or vein, or sometimes the brachial vein (1-2 ml). This was allowed to clot and then spun down (3000 rpm for 10 min, Damon/IEC NH-SII centrifuge) and the serum removed and frozen at −20 C for no more than 1 week. Baseline systolic, diastolic and mean arterial pressure as well as heart rate were recorded with the Dinamap monitor from a cuff placed around the arm or the leg.
After baseline measurements, the monkey was place supine with the eye pointing up and the eyelid held open. A 5 μl drop of test material or vehicle was delivered to opposite eyes. The eyelid was held open for at least 30 sec and the eye was maintained in the upward position for an additional 30 sec. The monkey was then returned to its cage and allowed to wake up. In the afternoon, at least 6 hours after the morning treatment, another treatment was administered. On the second day, dosing was repeated in the am and pm.
On the 3th day, prior to the 5th treatment, baseline IOP, biomicroscopy and MAP were determined. Preliminary studies indicated an effect was observed after these treatments but not after a single treatment. Following the 5th dose, IOP was measured at 1, 2, 3, 4, 5, 6, 7, 8, 12 (if possible), 24, and sometimes 48 hr. Biomicroscopy was done at 1, 3, 6, 24 and sometimes 48 hr. MAP on day 3 (some protocols) was determined at 1, 2, 3, 4, 5, 6, 7, 8, 24 and sometimes 48 hr if possible. Blood samples after the 5th treatment were collected at 6, 24, and sometimes 48 hr. For some protocols, IOP was also measured prior to each treatment; MAP was measured prior to the morning treatment; blood was collected prior to the afternoon treatment. Subsequent screening protocols will not include the MAP and blood collections and will only measure IOP at baseline and prior to and for 1-6 hr after the 5th treatment.
Adult cynomolgus monkeys (Macaca fascicularis) of either sex were anesthetized with intramuscular ketamine HCl (10 mg/kg initial, 5 mg/kg supplemental). Baseline pretreatment IOP was determined by Goldmann applanation tonometry [Kaufman, 1980] with […] used as a tear film indicator [Croft, 1997]. Two baseline IOP measurements were taken 5 minutes apart. […]

[2] = Serum Ca2+ level after ocular topical applications; assay type: in vivo, cynomolgus monkeys (Macaca fascicularis); conditions: 5 μg, 3 days, total 5 unilateral topical applications
Method: as §1
On the 3th day, prior to the 5th treatment, baseline IOP, biomicroscopy and MAP were determined. […] Following the 5th dose, IOP was measured at 1, 2, 3, 4, 5, 6, 7, 8, 12 (if possible), 24, and sometimes 48 hr. […] MAP on day 3 (some protocols) was determined at 1, 2, 3, 4, 5, 6, 7, 8, 24 and sometimes 48 hr if possible. […] For some protocols, IOP was also measured prior to each treatment; MAP was measured prior to the morning treatment; blood was collected prior to the afternoon treatment. […]

[3] = Example 3, 5 μg unilateral topical

Structure (SMILES): C=C1/C(=C\C=C2/CCC[C@]3(C)[C@@H]([C@H](C)CCCC(C)(C)O)CC[C@@H]23)C[C@@H](O)C[C@@H]1O [1,25-(OH)2D3, 1α,25-dihydroxyvitamin D3]
- IOP in treated eye compared with control eye ([1]; Example 1, 5 μg (2MD 6 μg) in 5 μl propylene glycol one eye, vehicle opposite eye): consistently, but not significantly less than in the control eye
- IOP less than at baseline prior to the 5th treatment ([1]; Example 1, 5 μg in 5 μl propylene glycol twice daily, n=8): 3-4 mmHg
- IOP less than at baseline prior to the 5th treatment ([1]; Example 1, 5 μg twice daily, n=8, p<0.05): ~17%
- time of gradual recovery of IOP toward baseline ([1]; Example 1, 5 μg, after 5th treatment): 24 to 48 h
- additional IOP decrease after the 5th treatment ([1]; Example 1, 5 μg, hr 1-4 after 5th dose): 1-2 mmHg
- total IOP reduction after the 5th treatment ([1]; Example 1, 5 μg, hr 1-4 after 5th dose, p<0.02): 20-30%
- strongest response, IOP decrease ([1]; Example 1, 5 uniocular topical treatments): up to 40%
- rank order of ocular hypotensive effect ([1]; Example 1, 5 uniocular topical treatments at the same dose): 1,25(OH)2D3>2MD>AGR
- effect on IOP ([1]; Example 3, 0.1 μg unilateral topical, either eye): did not have any significant effect on IOP in either eyes
- IOP reduction in control versus treated eyes ([1]; Example 3, 1 μg): stronger IOP reduction in the fellow control eyes than in the treated eyes
- IOP reduction (bilateral) ([1]; Example 3, 1 μg unilateral topical): 20%
- IOP difference between treated and control eyes ([1]; Example 3, 5 μg): no significant differences between the two eyes except for the time period of 12 h or longer
- IOP reduction, control eyes ([1]; Example 3, 5 μg in opposite eye): 27%
- IOP reduction, treated eye [1, 3]: 30%
- IOP decrease prior to the fifth treatment on day 3 [1, 3]: ~3 mmHg
- IOP decrease prior to the fifth treatment on day 3 ([1]; Example 3, 5 μg unilateral topical, p<0.05): approximately 20%
- time of return of IOP to near pretreatment baseline ([1]; Example 3, 5 μg, after fifth treatment): 48 h
- duration of IOP-lowering effect ([1]; topical application, nonhuman primates): more than 12 hours
- blood serum calcium levels [2]: did not change
